Earlier results, collected in patent publication US20100125067A1, “SULFONAMIDE INHIBITORS OF CARBONIC ANHYDRASE II” (AUSPEX PHARMACEUTICALS, INC., priority 2008, published 2010).

What was measured:
carbonic anhydrase I = carbonic anhydrase I (Homo sapiens, UniProt P00915); settings: as compared to the parent compound dorzolamide
carbonic anhydrase II = carbonic anhydrase II (Homo sapiens, UniProt P00918); settings: as compared to the parent compound dorzolamide

carbonic anhydrase I, sequence (P00915 whole entry, species assumed): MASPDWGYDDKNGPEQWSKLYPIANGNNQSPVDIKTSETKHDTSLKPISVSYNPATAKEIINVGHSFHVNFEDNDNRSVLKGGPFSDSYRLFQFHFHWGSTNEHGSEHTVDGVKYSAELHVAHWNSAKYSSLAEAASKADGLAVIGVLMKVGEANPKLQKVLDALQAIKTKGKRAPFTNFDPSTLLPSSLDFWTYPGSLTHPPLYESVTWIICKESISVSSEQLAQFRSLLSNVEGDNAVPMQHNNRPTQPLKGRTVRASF

**Q.** With `CC1CC(N)c2cc(S(N)(=O)=O)sc2S1(=O)=O` (centres unmarked) [N-de-ethylated metabolite] as the compound, how does the “potency as inhibitor of carbonic anhydrase I” value (carbonic anhydrase I) read?
**A.** The value was “more potent inhibitor”.

**Q.** And the “potency as inhibitor of carbonic anhydrase II” value (carbonic anhydrase II)?
**A.** Its value is “less potent inhibitor”.
